# Read-outs that look alike come from different tables or passages of the source.
# Legend:
# Parameters in all cases: dose or concentration left out as unconfirmed
# CCR2 = molecular target: T1, CCR2 (Homo sapiens, UniProt P41597); test: Figure S2a opioid peptide screen on chemokine receptors; assay type: cell-based
# T1 construct: expressed in transfected cells
# T1 sequence (P41597 1-360 isoform P41597-2): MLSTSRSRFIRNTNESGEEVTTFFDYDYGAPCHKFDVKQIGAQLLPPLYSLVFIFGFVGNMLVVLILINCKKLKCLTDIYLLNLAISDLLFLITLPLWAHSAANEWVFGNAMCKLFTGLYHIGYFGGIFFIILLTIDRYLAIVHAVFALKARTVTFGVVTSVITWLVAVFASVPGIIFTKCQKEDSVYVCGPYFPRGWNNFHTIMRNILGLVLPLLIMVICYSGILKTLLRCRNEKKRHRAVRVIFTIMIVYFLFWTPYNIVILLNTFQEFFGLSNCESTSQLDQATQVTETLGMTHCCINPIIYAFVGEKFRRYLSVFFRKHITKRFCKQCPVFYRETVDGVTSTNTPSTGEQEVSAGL
# CCR6 = molecular target: T2, CCR6 (Homo sapiens, UniProt P51684); test: as above; assay type: cell-based
# T2 construct: expressed in transfected cells
# T2 sequence (P51684 1-374): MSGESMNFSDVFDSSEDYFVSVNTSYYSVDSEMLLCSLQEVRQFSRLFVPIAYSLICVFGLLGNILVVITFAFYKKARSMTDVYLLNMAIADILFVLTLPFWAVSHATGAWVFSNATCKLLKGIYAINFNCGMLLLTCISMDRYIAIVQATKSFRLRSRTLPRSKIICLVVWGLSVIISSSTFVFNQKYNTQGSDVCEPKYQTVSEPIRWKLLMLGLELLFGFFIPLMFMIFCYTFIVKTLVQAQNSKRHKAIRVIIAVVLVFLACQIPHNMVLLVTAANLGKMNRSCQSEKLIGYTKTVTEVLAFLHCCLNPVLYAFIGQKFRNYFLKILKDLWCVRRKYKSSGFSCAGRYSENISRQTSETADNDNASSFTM
# CCR9 = molecular target: T3, CCR9 (Homo sapiens, UniProt P51686); test: as above; assay type: cell-based
# T3 construct: expressed in transfected cells
# T3 sequence (P51686 1-369): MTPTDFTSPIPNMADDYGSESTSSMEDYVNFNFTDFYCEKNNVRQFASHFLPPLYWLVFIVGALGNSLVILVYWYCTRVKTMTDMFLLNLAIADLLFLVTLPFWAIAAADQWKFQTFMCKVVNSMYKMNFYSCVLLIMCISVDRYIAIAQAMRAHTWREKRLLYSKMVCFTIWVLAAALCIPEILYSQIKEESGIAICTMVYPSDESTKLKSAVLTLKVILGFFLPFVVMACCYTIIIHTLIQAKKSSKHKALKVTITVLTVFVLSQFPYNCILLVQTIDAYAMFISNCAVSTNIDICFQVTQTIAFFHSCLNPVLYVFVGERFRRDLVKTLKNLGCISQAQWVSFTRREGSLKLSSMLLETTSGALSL
# CXCR3A = molecular target: T4, CXCR3A (Homo sapiens, UniProt P49682); test: as above; assay type: cell-based
# T4 construct: expressed in transfected cells; host or cells: U87 cells
# T4 sequence (P49682 1-368): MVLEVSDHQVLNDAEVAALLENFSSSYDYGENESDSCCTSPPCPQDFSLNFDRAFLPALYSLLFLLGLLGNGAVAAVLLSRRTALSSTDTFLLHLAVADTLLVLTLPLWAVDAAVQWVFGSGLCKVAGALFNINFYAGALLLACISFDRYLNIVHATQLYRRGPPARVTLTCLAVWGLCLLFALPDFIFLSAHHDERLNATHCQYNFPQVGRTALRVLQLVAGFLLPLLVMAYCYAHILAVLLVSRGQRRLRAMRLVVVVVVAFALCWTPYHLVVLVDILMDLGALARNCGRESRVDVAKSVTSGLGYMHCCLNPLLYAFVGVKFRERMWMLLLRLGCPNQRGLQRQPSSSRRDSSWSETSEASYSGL
# CXCR6 = molecular target: T5, CXCR6 (Homo sapiens, UniProt O00574); test: as above; assay type: cell-based
# T5 construct: expressed in transfected cells
# XCR1 = molecular target: T6, XCR1 (Homo sapiens, UniProt P46094); test: as above; assay type: cell-based
# T6 construct: expressed in transfected cells
# T6 sequence (P46094 1-333): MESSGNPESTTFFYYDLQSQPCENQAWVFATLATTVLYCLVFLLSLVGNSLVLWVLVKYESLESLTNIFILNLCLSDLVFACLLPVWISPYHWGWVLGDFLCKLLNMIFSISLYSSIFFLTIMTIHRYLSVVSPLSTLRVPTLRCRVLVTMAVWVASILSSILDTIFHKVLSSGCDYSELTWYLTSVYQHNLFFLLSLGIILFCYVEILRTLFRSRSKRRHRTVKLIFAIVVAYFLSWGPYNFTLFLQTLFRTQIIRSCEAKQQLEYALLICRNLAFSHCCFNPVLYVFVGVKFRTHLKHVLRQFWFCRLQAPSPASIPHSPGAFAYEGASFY
# ACKR3 = ACKR3 (Homo sapiens, UniProt P25106); test: cell-based; settings: read-out: ACKR3 activity, ctrl+ = 100, Figure S2a
# [1] = replicate 1, read-out: CCR2 activity, ctrl+ = 100
# [2] = replicate 2, read-out: CCR2 activity, ctrl+ = 100
# [3] = replicate 3, read-out: CCR2 activity, ctrl+ = 100
# [4] = replicate 1, read-out: CCR6 activity, ctrl+ = 100
# [5] = replicate 2, read-out: CCR6 activity, ctrl+ = 100
# [6] = replicate 3, read-out: CCR6 activity, ctrl+ = 100
# [7] = replicate 1, read-out: CCR9 activity, ctrl+ = 100
# [8] = replicate 2, read-out: CCR9 activity, ctrl+ = 100
# [9] = replicate 3, read-out: CCR9 activity, ctrl+ = 100
# [10] = replicate 1, read-out: CXCR3A activity, ctrl+ = 100
# [11] = replicate 2, read-out: CXCR3A activity, ctrl+ = 100
# [12] = replicate 3, read-out: CXCR3A activity, ctrl+ = 100
# [13] = replicate 1, read-out: CXCR6 activity, ctrl+ = 100
# [14] = replicate 2, read-out: CXCR6 activity, ctrl+ = 100
# [15] = replicate 3, read-out: CXCR6 activity, ctrl+ = 100
# [16] = replicate 1, read-out: XCR1 activity, ctrl+ = 100
# [17] = replicate 2, read-out: XCR1 activity, ctrl+ = 100
# [18] = replicate 3, read-out: XCR1 activity, ctrl+ = 100
# T5 sequence (O00574 whole entry): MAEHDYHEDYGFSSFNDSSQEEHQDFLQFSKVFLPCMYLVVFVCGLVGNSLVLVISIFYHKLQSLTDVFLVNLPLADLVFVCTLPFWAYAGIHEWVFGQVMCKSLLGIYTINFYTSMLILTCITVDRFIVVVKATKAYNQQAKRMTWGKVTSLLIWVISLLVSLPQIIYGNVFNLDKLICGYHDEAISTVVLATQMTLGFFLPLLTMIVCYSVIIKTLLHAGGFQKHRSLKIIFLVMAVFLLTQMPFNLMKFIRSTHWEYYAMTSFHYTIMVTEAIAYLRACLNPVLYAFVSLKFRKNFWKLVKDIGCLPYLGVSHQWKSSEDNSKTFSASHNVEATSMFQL
# Chain of ACKR3 (P25106 whole entry): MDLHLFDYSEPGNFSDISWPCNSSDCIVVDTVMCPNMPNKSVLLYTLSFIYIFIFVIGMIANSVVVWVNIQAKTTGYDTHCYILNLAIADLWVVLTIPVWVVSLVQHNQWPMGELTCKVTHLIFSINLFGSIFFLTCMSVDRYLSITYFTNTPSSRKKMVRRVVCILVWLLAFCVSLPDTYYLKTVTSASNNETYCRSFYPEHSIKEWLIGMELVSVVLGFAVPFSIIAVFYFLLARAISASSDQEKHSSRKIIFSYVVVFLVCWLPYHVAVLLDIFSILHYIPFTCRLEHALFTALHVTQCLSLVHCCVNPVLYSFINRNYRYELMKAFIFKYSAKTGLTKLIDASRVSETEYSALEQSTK
Compound,activation (CCR2; [1]) [%],activation (CCR2; [2]) [%],activation (CCR2; [3]) [%],activation (CCR6; [4]) [%],activation (CCR6; [5]) [%],activation (CCR6; [6]) [%],activation (CCR9; [7]) [%],activation (CCR9; [8]) [%],activation (CCR9; [9]) [%],activation (CXCR3A; [10]) [%],activation (CXCR3A; [11]) [%],activation (CXCR3A; [12]) [%],activation (CXCR6; [13]) [%],activation (CXCR6; [14]) [%],activation (CXCR6; [15]) [%],activation (XCR1; [16]) [%],activation (XCR1; [17]) [%],activation (XCR1; [18]) [%],activation (ACKR3; replicate 1) [%],activation (ACKR3; replicate 2) [%],also measured
CSCC[C@H](NC(=O)[C@H](Cc1ccccc1)NC(=O)CNC(=O)CNC(=O)[C@@H](N)Cc1ccc(O)cc1)C(=O)N[C@@H](CCCNC(=N)N)C(=O)N[C@@H](CCCNC(=N)N)C(=O)N[C@H](C(N)=O)C(C)C [Adrenorphin],-0.901,-1.07,-1.1,-3.87,1.08,-1.64,0.345,-0.997,2.74,-0.787,0.214,3.64,0.866,-0.941,-0.716,-2.07,2.59,12.1,111,55.3,activation (ACKR3; replicate 3): 84.5%
CC(C)C[C@H](NC(=O)[C@H](Cc1ccccc1)NC(=O)CNC(=O)CNC(=O)[C@@H](N)Cc1ccc(O)cc1)C(=O)N[C@@H](CCCN=C(N)N)C(=O)N[C@@H](CCCN=C(N)N)C(=O)N[C@@H](CCC(N)=O)C(=O)N[C@@H](Cc1ccccc1)C(=O)N[C@@H](CCCCN)C(=O)N[C@H](C(=O)N[C@H](C(=O)N[C@H](C(=O)O)[C@@H](C)O)C(C)C)C(C)C [Dynorphin B],0.688,-2.18,1.67,-0.194,-0.375,-3.12,-1.23,-1.3,15.7,-2.8,-4.87,-1.97,-1.05,-1.2,0.0809,-1.79,0.791,9.32,87,63.5,activation (ACKR3; replicate 3): 94.7%
CSCC[C@H](NC(=O)[C@H](Cc1ccccc1)NC(=O)CNC(=O)CNC(=O)[C@@H](N)Cc1ccc(O)cc1)C(=O)N[C@@H](CCCNC(=N)N)C(=O)N[C@@H](CCCNC(=N)N)C(=O)N[C@H](C(=O)NCC(=O)N[C@@H](CCCNC(=N)N)C(=O)N1CCC[C@H]1C(=O)N[C@@H](CCC(=O)O)C(=O)N[C@@H](Cc1c[nH]c2ccccc12)C(=O)N[C@@H](Cc1c[nH]c2ccccc12)C(=O)N[C@@H](CCSC)C(=O)N[C@@H](CC(=O)O)C(=O)N[C@@H](Cc1ccc(O)cc1)C(=O)N[C@@H](CCC(N)=O)C(=O)N[C@@H](CCCCN)C(=O)N[C@@H](CCCNC(=N)N)C(=O)N[C@@H](Cc1ccc(O)cc1)C(=O)NCC(=O)O)C(C)C [BAM22],-0.243,-1.08,1.22,-2.07,-2.99,-1.86,-0.202,-2.13,5.56,3.44,2.11,7.49,-0.237,-0.939,-1.21,-2.25,-4.24,8.51,104,61.3,activation (ACKR3; replicate 3): 104%

# Reference: article PMC7305236, “The atypical chemokine receptor ACKR3/CXCR7 is a broad-spectrum scavenger for opioid peptides” (Nature Communications, 2020)
